Results from patent US20210113501A1, “METHOD OF ADMINISTERING BETA-HYDROXY-BETA-METHYLBUTYRATE (HMB)” (Metabolic Technologies, Inc., priority 2009, published 2021).

Experiment: Study 1 blood chemistry
Assay type: in vivo, human
Details: for Gamma-glutamyl: in U/L (unit assumed)
Method: Study 1 design. For study 1 the subjects reported to the laboratory in the morning following an overnight fast. Before ingestion of one of the supplemental treatments, a flexible sterile polyethylene catheter was inserted into a forearm vein using sterile procedures and a pre-ingestion blood sample was drawn. Subsequent blood samples were taken at 0, 2, 5, 10, 15, 25, 35, 45, 60, 90, 120 and 180 min after ingestion of the treatment. Plasma was separated and samples were stored frozen at −70° C. for analysis of HMB concentration. In addition, a portion of the pre-ingestion and 180 minute blood samples were used for measurements (LabCorp, Kansas City, Mo.) of glucose, uric acid, blood urea nitrogen (BUN), creatinine, sodium, potassium, chloride, carbon dioxide, phosphorous, protein, albumin, globulin, albumin:globulin ratio, total bilirubin, direct bilirubin, alkaline phosphatase, lactate dehydrogenase, aspartate aminotransferase (AST), alanine aminotransferase (ALT), gamma-glutamyl transpeptidase (GGT), iron binding capacity (TIBC), unsaturated iron binding capacity (UIBC), iron, iron saturation, total cholesterol, triglycerides, high density lipoprotein (HDL), low density lipoprotein (LDL), and cholesterol ratio. A complete blood count (CBC) was also performed before and after the 180 min treatment period. Subjects also completed a brief questionnaire to report any physical symptoms (such as nausea, headache, etc) they may have experienced during the experiment.
The data were analyzed using a crossover design with Proc GLM in SAS. (45) For the timed sampling of plasma HMB a repeated measures polynomial model was used. The model included subject, order, and treatment main effects and time by treatment interaction where appropriate. For other parameters Proc GLM was also used with subject, order, and treatment main effects and the p values are reported for the treatment main effect. Statistical significance was determined for p<0.05 and a trend was determined for 0.05<p<0.10.

[1] = After (180 min), listed as Free Acid Gel Sublingual
[2] = Before to After, listed as Free Acid Gel Sublingual
[3] = Before, listed as Free Acid Gel Sublingual

SMILES: CC(C)(O)CC(=O)O [HMB-Acid Gel Sublingual, 3-hydroxy-3-methylbutyric acid]
- Albumin (After (180 min)): 4.1 ± 0.2 g/dL
- Direct Bilirubin (After (180 min)): 0.1 ± 0.01 mg/dL
- Iron Saturation (After (180 min)): 30.9 ± 8.5%
- A:G Ratio [1]: 1.8 ± 0.1
- Alanine Aminotransferase [1]: 17.3 ± 2.7 IU/L
- Alkaline Phosphatase [1]: 66.8 ± 6.8 IU/L
- Aspartate Aminotransferase [1]: 28.3 ± 8.2 IU/L
- Blood Urea Nitrogen [1]: 12.9 ± 0.8 mg/dL
- CO2 [1]: 24.3 ± 0.6 mEq/L
- Chloride [1]: 102.4 ± 1.1 mEq/L
- Cholesterol Ratio [1]: 3.3 ± 0.2
- Creatinine [1]: 1.0 ± 0.04 mg/dL
- Globulin [1]: 2.3 ± 0.1 g/dL
- Glucose [1]: 77.4 ± 2.5 mg/dL
- HDL [1]: 49.3 ± 4.3 mg/dL
- Iron [1]: 94.6 ± 16.6 µg/dL
- Iron Binding Capacity [1]: 339.5 ± 30.8 µg/dL
- LDL [1]: 89.4 ± 4.9 mg/dL
- Lactate Dehydrogenase [1]: 167.3 ± 12.2 IU/L
- Phosphorus [1]: 3.5 ± 0.2 mg/dL
- Potassium [1]: 4.5 ± 0.1 mEq/L
- Protein [1]: 6.4 ± 0.2 g/dL
- Sodium [1]: 137.8 ± 0.9 mEq/L
- Total Bilirubin [1]: 0.5 ± 0.05 mg/dL
- Total Cholesterol [1]: 155.5 ± 5.8 mg/dL
- Triglycerides [1]: 83.8 ± 15.8 mg/dL
- UIBC [1]: 244.9 ± 39.5 µg/dL
- Uric Acid [1]: 4.0 ± 0.5 mg/dL
- Gamma-glutamyl [1]: 13.4 ± 1.2
- A:G Ratio (Before): 1.9 ± 0.1
- Creatinine (Before): 1.0 ± 0.1 mg/dL
- Direct Bilirubin (Before): 0.1 ± 0.01 mg/dL
- Total Bilirubin (Before): 0.4 ± 0.05 mg/dL
- A:G Ratio % Change [2]: −2.0%
- Alanine Aminotransferase % Change [2]: −0.7%
- Albumin % Change [2]: 1.5%
- Alkaline Phosphatase % Change [2]: 1.1%
- Aspartate Aminotransferase % Change [2]: 0.9%
- Blood Urea Nitrogen % Change [2]: −10.4%
- CO2 % Change [2]: 1.0%
- Chloride % Change [2]: −0.5%
- Cholesterol Ratio % Change [2]: −0.4%
- Creatinine % Change [2]: −1.5%
- Direct Bilirubin % Change [2]: 8.6%
- Gamma-glutamyl % Change [2]: 0.9%
- Globulin % Change [2]: 1.6%
- Glucose % Change [2]: 4.4%
- HDL % Change [2]: 1.3%
- Iron % Change [2]: 13.7%
- Iron Binding Capacity % Change [2]: 3.5%
- Iron Saturation % Change [2]: 6.0%
- LDL % Change [2]: 2.1%
- Lactate Dehydrogenase % Change [2]: 1.5%
- Phosphorus % Change [2]: −13.2%
- Potassium % Change [2]: 10.6%
- Protein % Change [2]: 1.6%
- Sodium % Change [2]: −1.1%
- Total Bilirubin % Change [2]: 22.6%
- Total Cholesterol % Change [2]: 0.7%
- Triglycerides % Change [2]: −8.7%
- UIBC % Change [2]: 0.1%
- Uric Acid % Change [2]: −2.2%
- Alanine Aminotransferase [3]: 17.4 ± 2.7 IU/L
- Albumin [3]: 4.1 ± 0.1 g/dL
- Alkaline Phosphatase [3]: 66.0 ± 6.3 IU/L
- Aspartate Aminotransferase [3]: 28.0 ± 7.9 IU/L
- Blood Urea Nitrogen [3]: 14.4 ± 0.8 mg/dL
- CO2 [3]: 24.0 ± 0.5 mEq/L
- Chloride [3]: 102.9 ± 0.6 mEq/L
- Cholesterol Ratio [3]: 3.3 ± 0.2
- Globulin [3]: 2.3 ± 0.2 g/dL
- Glucose [3]: 74.1 ± 1.7 mg/dL
- HDL [3]: 48.6 ± 4.6 mg/dL
- Iron [3]: 83.3 ± 16.4 µg/dL
- Iron Binding Capacity [3]: 328.0 ± 32.8 µg/dL
- Iron Saturation [3]: 29.1 ± 9.0%
- LDL [3]: 87.5 ± 5.7 mg/dL
- Lactate Dehydrogenase [3]: 164.8 ± 12.5 IU/L
- Phosphorus [3]: 4.1 ± 0.05 mg/dL
- Potassium [3]: 4.0 ± 0.03 mEq/L
- Protein [3]: 6.3 ± 0.2 g/dL
- Sodium [3]: 139.3 ± 0.8 mEq/L
- Total Cholesterol [3]: 154.4 ± 6.9 mg/dL
- Triglycerides [3]: 91.8 ± 16.1 mg/dL
- UIBC [3]: 244.8 ± 42.3 µg/dL
- Uric Acid [3]: 4.0 ± 0.4 mg/dL
- Gamma-glutamyl [3]: 13.3 ± 1.2
